From patent US20250326753A1, “DUAL CXCR4-BTK INHIBITORS” (X4 Pharmaceuticals, Inc., priority 2022, published 2025)
Read-outs that look alike come from different tables or passages of the source.

Assays:
[1] = test system: 340 wild-type protein kinases; test: PanQinase wild-type kinase panel, selectivity score; assay type: biochemical; settings: 1 μM; share of kinases with residual activity <50%; 340 wild-type protein kinase assays
Experimental: Screening procedures were performed in accordance with the company's on-line protocol [accessed on-line Mar.
The selectivity score for a particular compound at a particular concentration was calculated by using the following formula: Selectivity Score=(count of data points <50%)/(total number of data points).

[2] = test system: T98G; test: Glioblastoma multiforme cell proliferation assay (CellTiter Glo), T98G; assay type: cell-based; settings: Homo sapiens; for Emax: read-out: GBM-T-98G Cell Proliferation Emax %
Experimental: (§1) Inhibition of glioblastoma multiforme cell proliferation by compounds of the present invention was evaluated in U-87 MG (ATCC; Cat. No. HTB-14; Lot. No. 5018014) and T98G (ATCC; Cat. No. CRL-1690; Lot. No. 58267513) cell lines. These are adherent cell lines isolated from glioblastoma multiforme/malignant glioma, which express both CXCR4 and BTK (see Zhou et al. 2002 and Yue et al. 2017).
(§2) Cell viability was analyzed with the CellTiter Glo Cell assay kit ([…], Cat. No. G7573, Lot. No. 0000474103), according to the manufacturer's instruction.
(§3) U-87 MG and T98G cells were seeded onto 384-well opaque-walled clear bottom plates (Corning, Cat. No. 3765, Lot. No. 34319047) in EMEM (Invitrogen, Cat. No. 11095-080; Lot. No. 2276656) supplemented with 10% FBS (Invitrogen, Cat. No. 10099-141C, Lot. No. 2145169CP), at a seeding density of 1000 or 1200 cells per well, respectively, and then incubated in 5% CO2 at 37° C. overnight.
(§4) Compounds were prepared as stock solutions of 30 mM in DMSO (Sigma, Cat. No. 276855-1L. Lot. No. SHBL5610). Compounds were added to the cells, with 10 dose points in duplicates, in 3-fold dilution from a top concentration of 30 μM (final DMSO concentration […]), and incubated in 5% CO2 at 37° C. for 96 hr.
(§5) The 384-well plates were equilibrated at room temperature for approximately 30 min. 25 μl of CellTiter-Glo® Reagent was added to each well and mixed for 10 min on an orbital shaker to induce cell lysis. The 384-well plates were incubated at room temperature for 10 min to stabilize luminescent signal. Luminescence was detected on a PerkinElmer EnVision Multimode Plate Reader (measurement time 0.1s) as relative luminescence units (RLU).

[3] = test system: GBM-U251MG; test: GBM cell proliferation, U251MG (cell-based cancer efficacy assays); settings: Homo sapiens, U-251; Table 6B
[4] = test system: U-87 MG; test: Glioblastoma multiforme cell proliferation assay (CellTiter Glo), U-87 MG; assay type: cell-based; settings: Homo sapiens; for Emax: read-out: GBM-U87MG Cell Proliferation Emax %
Experimental: as §1, §2, §3, §4, §5

[5] = test system: MWCL-1; test: Apoptosis assay (annexin V flow cytometry) in Waldenstrom's Macroglobulinemia cells; assay type: cell-based, human; settings: Homo sapiens; numeric; read-out: Apoptosis IC50 (μM) in single-mutant WM Cell Lines (MWCL-1)
Experimental: Waldenström's Macroglobulinemia cells (MWCL-1) and the bone marrow stromal cells (BMSCs; HS-27A) were used in this study. The MWCL-1 is a lymphoplasmacytic lymphoma established from the bone marrow aspirate of a patient diagnosed with Waldenström's Macroglobulinemia. It was provided by Dr Stephen M. Ansell (MAYO file number 2021-121; 200 First Street SW, Rochester, Minnesota). This cell line was cultured in RPMI-1640 (Fisher Scientific) containing 10% fetal bovine serum (FBS) (Sigma Aldrich, St Louis, MO), 100U/ml of Penicillin-Streptomycin (Gibco™, ThermoFisher Scientific). The HS-27A bone marrow stromal cells were obtained from ATCC. They were maintained in RPMI 1640 (Fisher Scientific) supplemented with 100U/ml of Penicillin-Streptomycin (Gibco™, ThermoFisher Scientific) and 10% FBS (TakaraBio). Cells were cultured in a 37° C. tissue culture CO2 incubator.
For studies with compounds using a co-culture system of MWCL-1 and BMSCs, BMSCs were cultured in a 96-, 48- or 24-well plates and cultured until the 90% confluence was reached. […] After 1 hour, the MWCL-Icells were added to the BMSC to create a co-culture system. The cells were co-incubated for 72 hours. After incubation time, cell viability, apoptosis, and IgM release were measured.
For studying the effect of compounds on inducing apoptosis of Waldenström Macroglobulinemia cells (MWCL-1). Cells were washed with PBS, resuspended in Annexin V binding buffer (Biolegend), and stained with Alexa Fluor 647 annexin V (Biolegend), Propidium Iodide (BD Pharmigen), and CD45 antibody (Biolegend) for 15 minutes at RT and analyzed by flow cytometry. Data were collected on an CytoFLEX S Flow Cytometer (Beckman Coulter) and analysed with FCS Express Software (De Novo Software). Annexin V positive cells were considered apoptotic.

[6] = test system: WM patients; settings: cited from earlier work
[7] = test system: Ramos cell line; settings: read-out: IC50, inhibition of cell proliferation, Chu et al. 2018; cited from earlier work
[8] = biological target: T1, CDK13/CycK (Homo sapiens, UniProt Q14004); test: PanQinase kinase panel: CDK13/CycK; assay type: biochemical; settings: read-out: INHIBITORY EFFECT @ 1 uM: CDK13/CycK
T1 construct: purchased Reaction Biology Europe GmbH
Experimental: Screening procedures were performed in accordance with the company's on-line protocol [accessed on-line Mar. 25, 2022 at reaction biology.com/assay-protocol-panqinase]. Inhibitory activity of 50% or greater at concentrations of 1 μM are highlighted for all five compounds tested.
For each kinase, the median value of the cpm of three wells was defined as “low control” (n=3). This value reflects unspecific binding of radioactivity to the plate in the absence of a protein kinase but in the presence of the substrate. Additionally, for each kinase the median value of the cpm of three other wells was taken as the “high control,” i.e. full activity in the absence of any inhibitor (n=3). The difference between high and low control of each enzyme was taken as 100% activity.
As part of the data evaluation the low control of each kinase was subtracted from the high control value as well as from their corresponding “compound values”. The residual activity (in %) for each compound well was calculated by using the following formula: Res. Activity (%)=100×[(signal of compound−low control)/(high control−low control)].

T1 sequence (Q14004 whole entry): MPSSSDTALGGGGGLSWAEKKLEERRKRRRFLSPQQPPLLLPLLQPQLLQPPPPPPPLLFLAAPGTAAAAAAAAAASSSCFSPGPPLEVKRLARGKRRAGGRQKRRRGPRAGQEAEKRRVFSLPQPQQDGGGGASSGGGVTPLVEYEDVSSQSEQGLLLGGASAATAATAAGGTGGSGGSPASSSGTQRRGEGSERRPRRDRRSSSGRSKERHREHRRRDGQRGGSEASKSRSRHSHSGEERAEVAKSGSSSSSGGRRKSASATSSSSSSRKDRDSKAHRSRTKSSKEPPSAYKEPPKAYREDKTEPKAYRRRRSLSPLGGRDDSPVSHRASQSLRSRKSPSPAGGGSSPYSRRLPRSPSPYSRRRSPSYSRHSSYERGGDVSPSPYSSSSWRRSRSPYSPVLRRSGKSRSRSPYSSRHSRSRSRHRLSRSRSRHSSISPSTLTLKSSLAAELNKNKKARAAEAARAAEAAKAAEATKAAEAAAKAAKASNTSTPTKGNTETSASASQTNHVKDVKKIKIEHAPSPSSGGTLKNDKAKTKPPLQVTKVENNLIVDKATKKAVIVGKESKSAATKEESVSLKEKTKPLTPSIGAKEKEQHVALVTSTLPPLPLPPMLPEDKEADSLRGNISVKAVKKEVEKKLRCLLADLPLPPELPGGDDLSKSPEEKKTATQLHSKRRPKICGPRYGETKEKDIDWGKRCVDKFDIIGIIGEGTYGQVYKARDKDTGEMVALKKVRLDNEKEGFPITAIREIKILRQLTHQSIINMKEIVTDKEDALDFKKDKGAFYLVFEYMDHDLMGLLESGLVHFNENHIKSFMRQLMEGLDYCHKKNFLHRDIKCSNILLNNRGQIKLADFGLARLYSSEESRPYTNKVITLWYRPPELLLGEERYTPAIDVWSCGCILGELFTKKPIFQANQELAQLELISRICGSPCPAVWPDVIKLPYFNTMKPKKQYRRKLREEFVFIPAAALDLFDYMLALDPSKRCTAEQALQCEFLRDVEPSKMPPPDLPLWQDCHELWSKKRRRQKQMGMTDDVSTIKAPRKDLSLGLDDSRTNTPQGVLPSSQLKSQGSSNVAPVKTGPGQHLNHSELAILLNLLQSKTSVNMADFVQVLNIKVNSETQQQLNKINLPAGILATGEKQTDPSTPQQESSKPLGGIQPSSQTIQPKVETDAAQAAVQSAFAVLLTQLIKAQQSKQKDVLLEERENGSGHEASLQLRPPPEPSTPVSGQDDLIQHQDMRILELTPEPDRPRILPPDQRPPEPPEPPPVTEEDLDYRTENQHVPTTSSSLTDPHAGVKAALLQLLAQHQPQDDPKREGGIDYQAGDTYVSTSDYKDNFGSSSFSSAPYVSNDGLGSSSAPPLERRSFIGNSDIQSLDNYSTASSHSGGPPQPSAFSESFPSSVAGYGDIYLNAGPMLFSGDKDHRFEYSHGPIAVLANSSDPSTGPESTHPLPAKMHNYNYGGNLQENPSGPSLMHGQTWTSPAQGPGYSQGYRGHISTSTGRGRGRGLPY
T1 sequence (O75909 whole entry partner): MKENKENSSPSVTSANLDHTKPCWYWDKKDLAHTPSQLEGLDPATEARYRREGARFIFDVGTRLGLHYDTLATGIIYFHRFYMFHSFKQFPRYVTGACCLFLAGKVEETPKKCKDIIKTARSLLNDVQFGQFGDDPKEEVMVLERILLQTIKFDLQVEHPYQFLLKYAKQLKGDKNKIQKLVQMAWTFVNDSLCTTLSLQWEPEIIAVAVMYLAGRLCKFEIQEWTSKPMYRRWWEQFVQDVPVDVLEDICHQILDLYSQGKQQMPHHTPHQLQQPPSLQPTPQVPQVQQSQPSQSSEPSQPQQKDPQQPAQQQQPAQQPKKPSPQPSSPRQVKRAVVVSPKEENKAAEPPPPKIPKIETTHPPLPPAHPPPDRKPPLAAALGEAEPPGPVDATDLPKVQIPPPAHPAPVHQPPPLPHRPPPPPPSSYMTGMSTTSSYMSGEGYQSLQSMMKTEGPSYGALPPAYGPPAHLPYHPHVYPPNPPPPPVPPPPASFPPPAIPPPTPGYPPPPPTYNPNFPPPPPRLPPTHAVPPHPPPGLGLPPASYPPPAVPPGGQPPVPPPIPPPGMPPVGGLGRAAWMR

Selectivity Score [1]	IC50 ([2]; Table 6B, read-out: GBM-T-98G Cell Proliferation IC50) [µM]	IC50 ([4]; Table 6B, read-out: GBM-U87MG Cell Proliferation IC50) [µM]	SMILES	Emax ([2]; Table 6B) [%]	Emax [3] [%]	IC50 [3] [µM]	Emax ([4]; Table 6B) [%]	IC50 [5] [µM]	IC50 ([2]; 96 h, read-out: T98G IC50 (uM)) [µM]	Emax [2] [%]	IC50 ([2]; read-out: GBM-T-98G Cell Proliferation IC50 uM) [µM]	VGPR ([6]; WM patients with MYD88 L265P CXCR4 WT) [%]	VGPR ([6]; WM patients with double mutations MYD88 L265P CXCR4 WHIM) [%]	IC50 [7] [µM]	inhibition at 1 µM [8] [%]	IC50 ([4]; 96 h, read-out: U-87 MG IC50 (uM)) [µM]	Emax [4] [%]	IC50 ([4]; read-out: GBM-U87MG Cell Proliferation IC50 uM) [µM]
0.009	–	–	Cc1cc(-c2ccnc(Nc3cnn(C)c3)n2)ccc1CNC(=O)N1CC(OC(C)C)C1 [BIIB-068, reference compound]	–	–	–	–	–	–	–	–	–	–	–	–	–	–	–
–	> 30	6.47	Cc1cccnc1[C@@H]1CCC[C@H](c2cn3c(N4CCN(C)CC4)cccc3n2)N1C [Compound I-19]	16	6	1.67	19	–	–	–	–	–	–	–	–	–	–	–
–	–	–	C=CC(=O)N1CCC[C@@H](n2nc(-c3ccc(Oc4ccccc4)cc3)c3c(N)ncnc32)C1 [Ibrutinib, ibrutinib, reference compound]	–	57	0.31	–	4.2	> 30	73	24.4	44.4	9.5	0.87	< 50	> 30	52	28.5
